Laboratory results published in US11766426B2, “Semi-solid topical composition containing pirfenidone and modified diallyl disulfide oxide (M-DDO) for eliminating or preventing acne” (Excalibur Pharmaceuticals, Inc., priority 2012, dated 2023).

Experiments:
Type in all cases: cell-based
[1] = system: microorganisms isolated from hospitalized patients; assay: Challenges with microorganisms isolated from hospitalized patients, summary; settings: 30 second contact
Description: (§1) A second type of challenges were performed at the Universidad Autónoma del Estado de Morelos with microorganisms collected from hospitalized patients and thus said microorganisms had already been in contact with antimicrobial agents and could show resistance (Table 4).

[2] = system: Candida albicans ATCC 10231; assay: Microbial challenge, ARj.; settings: contact time 30 seconds
Description: (§2) Tables 1, 2, 3 and 4 (shown hereinafter) present the information obtained after conducting microbiological tests, also known as antimicrobial challenge, of M-DDO against various bacteria, showing its powerful anti-bacterial capacity. Moreover, Table 5 (shown hereinafter) presents the results of M-DDO against Propionibacterium acnes.
(§3) Various antimicrobial challenges have been studied in various institutions in order to evaluate the efficacy of M-DDO [Pirfenidone and M-DDO] against the most frequent microorganisms susceptible to develop resistance and against some microorganisms that may cause grater problem with regard to their eradication because of spore production.
(§4) The initial challenges are conducted with collection microorganisms universally requested for evidencing the efficacy of a product. […] Moreover, results of studies conducted by a company authorized by the authorities to perform challenge studies show results that are similar to the results obtained in the test conducted at UNAM, UAEM and in our laboratory (Grupo Medifarma)(Tables 1, 2 and 3).

[3] = system: Klebsiella pneumoniae ATCC 10031; assay: Microbial challenge, ARj.; settings: contact time 30 seconds
Description: as §2, §3, §4

Propionibacterium acnes = assay: Antimicrobial action of Pirfenidone and M-DDO gel
Description: as §2

[4] = system: collection microorganisms; assay: Microbial challenge studies at the Universidad Nacional Autónoma de México, summary
Description: as §3, §4

Salmonella typhi CA-C001 = assay: Microbial challenge, UNAM; settings: contact time 30 seconds
Description: as §2, §3, §4

[5] = system: Escherichia coli ATCC 10536; assay: Microbial challenge, Grupo Medifarma; settings: contact time 30 seconds
Description: as §2, §3, §4

[6] = system: Staphylococcus epidermidis ATCC 12228; assay: Microbial challenge, Grupo Medifarma; settings: contact time 30 seconds
Description: as §2, §3, §4

[7] = system: Pseudomonas aeruginosa ATCC 9027; assay: Microbial challenge, Grupo Medifarma; settings: contact time 30 seconds
Description: as §2, §3, §4

[8] = system: Proteus vulgaris ATCC 6380; assay: Microbial challenge, Grupo Medifarma; settings: contact time 30 seconds
Description: as §2, §3, §4

[9] = system: Candida albicans ATCC 10231; assay: Microbial challenge, Grupo Medifarma; settings: contact time 30 seconds
Description: as §2, §3, §4

[10] = system: Klebsiella pneumoniae ATCC 10031; assay: Microbial challenge, Grupo Medifarma; settings: contact time 30 seconds
Description: as §2, §3, §4

[11] = system: Escherichia coli ATCC 11229; assay: Microbial challenge, Grupo Medifarma; settings: contact time 30 seconds
Description: as §2, §3, §4

[12] = system: Staphylococcus aureus ATCC 6538; assay: Microbial challenge, Grupo Medifarma; settings: contact time 30 seconds
Description: as §2, §3, §4

Staphylococcus aureus = assay: Challenge with microorganisms collected from hospitalized patients, Universidad Autónoma del Estado de Morelos; settings: contact time 30 seconds; isolate from hospitalized patients; UAEM
Description: as §2, §1

Serratia marcenses = assay: as above; settings: contact time 30 seconds; isolate from hospitalized patients; UAEM
Description: as §2, §1

Enterobacter faecalis = assay: as above; settings: contact time 30 seconds; isolate from hospitalized patients; UAEM
Description: as §2, §1

Enterobacter cloacae = assay: as above; settings: contact time 30 seconds; isolate from hospitalized patients; UAEM
Description: as §2, §1

Escherichia coli = assay: as above; settings: contact time 30 seconds; isolate from hospitalized patients; UAEM
Description: as §2, §1

Salmonella typhi = assay: as above; settings: contact time 30 seconds; isolate from hospitalized patients; UAEM
Description: as §2, §1

Salmonella enteritidis = assay: as above; settings: contact time 30 seconds; isolate from hospitalized patients; UAEM
Description: as §2, §1

[1,2-diallyl-1-(5-methyl-tetrahydro-2H-pyran-2-yloxy)disulfonium]+6-[(benzyl, methyl, octylammonium) (hydroxymethylamin)(methylamin)]-tetrahydro-2H-pyran-3-oxy] chloride [M-DDO]
99.999%: Percentage of reduction of bacteria viability (%) (Propionibacterium acnes; exposition time 30 sec) | Percentage of reduction of bacteria viability (%) (Propionibacterium acnes; exposition time 60 sec) | elimination of the microbial charge [4] | elimination of the microbial charge (Salmonella typhi CA-C001) | reduction of the microbial charge (Staphylococcus aureus)
99.170%: reduction of the microbial charge (Salmonella typhi)
99.972%: reduction of the microbial charge (Enterobacter faecalis)
at least 99.17%: reduction of the microbial charge [1]
99.961%: reduction of the microbial charge (Escherichia coli)
100%: elimination of the microbial charge [2] | elimination of the microbial charge [3] | Percentage of reduction of bacteria viability (%) (Propionibacterium acnes; exposition time 15 min) | elimination of microorganisms [5] | elimination of microorganisms [6] | elimination of microorganisms [7] | elimination of microorganisms [8] | elimination of microorganisms [9] | elimination of microorganisms [10] | elimination of microorganisms [11] | elimination of microorganisms [12] | reduction of the microbial charge (Serratia marcenses) | reduction of the microbial charge (Enterobacter cloacae) | reduction of the microbial charge (Salmonella enteritidis)
